For one test, the target named is T1, GST-JAK1(866-1154) (Homo sapiens, UniProt P23458).
T1 construct: GST-JAK1(866-1154); made in house
Put plainly: EPK JAK-family kinases profiling assay (Caliper mobility shift), JAK1. The note with it: ATP 40 μM, 50 nM kinase. It counts as biochemical. Summed up: (§1)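 Turnover was read as substrate/product ratio after mobility-shift capillary-like separation of each reaction, run for 60 min at 30 °C with GST-tagged kinase domain, labelled peptide and ATP, and terminated with EDTA stop buffer.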

The next test deals with T2, GST-JAK2(808-1132) (Homo sapiens, UniProt O60674).
T2 construct: GST-JAK2(808-1132); purchased Invitrogen (Carlsbad, USA) #4288
The test can be described thus: EPK JAK-family kinases profiling assay (Caliper mobility shift), JAK2. The note with it: ATP 20 μM, 1.8 nM kinase. The format is biochemical. Summed up: as §1

The target in the next test is T3, GST-TYK2(888-1187) (Homo sapiens, UniProt P29597).
T3 construct: GST-TYK2(888-1187); made in house
T3 sequence (P29597 888-1187): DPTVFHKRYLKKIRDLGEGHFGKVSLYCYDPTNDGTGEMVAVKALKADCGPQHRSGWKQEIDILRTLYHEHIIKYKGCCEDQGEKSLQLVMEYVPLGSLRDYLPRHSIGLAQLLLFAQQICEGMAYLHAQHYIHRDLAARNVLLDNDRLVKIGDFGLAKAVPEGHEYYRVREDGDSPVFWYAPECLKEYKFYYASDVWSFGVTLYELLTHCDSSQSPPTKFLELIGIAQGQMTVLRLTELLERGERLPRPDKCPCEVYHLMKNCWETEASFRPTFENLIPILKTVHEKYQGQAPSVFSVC
The test can be described thus: EPK JAK-family kinases profiling assay (Caliper mobility shift), TYK2. It counts as biochemical. The note with it: ATP 30 μM, 40 nM kinase. An excerpt: All four kinases of the JAK-family kinases were used as purified recombinant GST-fusion proteins, containing the active kinase domains. GST-JAK1(866-1154), GST-JAK3(811-1124), and GST-TYK2(888-1187) were expressed and purified by affinity chromatography at the EPK biology unit. GST-JAK2(808-1132) was purchased from Invitrogen (Carlsbad, USA, #4288).
The kinase assays were based on the Caliper mobility shift assay using the LabChip 3000 systems. This technology is similar to capillary electrophoresis and uses charge driven separation of substrate and product in a microfluidic chip.
All kinase reactions were performed in 384 well microtiter plates in a total reaction volume of 18 μl. The assay plates were prepared with 0.1 μl per well of test compound in the appropriate test concentration, as described under the section “preparation of compound dilutions”. The reactions were started by combining 9 μl of substrate mix (consisting of peptide and ATP) with 9 μl of kinase dilution. The reactions were incubated for 60 minutes at 30° C. and stopped by adding 70 μl of stop buffer (100 mM Hepes, 5% DMSO, 0.1% Coating reagent, 10 mM EDTA, 0.015% Brij 35).
Fluorescently labeled synthetic peptides were used as substrates in all reactions. […] Specific assay conditions are described in Table 1:
The terminated reactions were transferred to the Caliper LabChip 3000 reader and the turnover of each reaction was measured by determining the substrate/product ratio.
Test compounds were dissolved in DMSO (10 mM) and transferred into 1.4 mL flat bottom or V-shaped Matrix tubes carrying a unique 2D matrix chip by individual compound hubs. The numbers of these chips were distinctively linked to the individual compound identification numbers. The stock solutions were stored at −20° C. if not used immediately. For the test procedure the vials were defrosted and identified by a scanner whereby a working sheet was generated that guided the subsequent working steps.
Compound dilutions were made in 96 well plates. This format enabled the assay of maximally 40 individual test compounds at 8 concentrations (single points) including 4 reference compounds. The dilution protocol included the production of pre-dilution plates, master plates and assay plates:
Pre-dilution plates: 96 polypropylene well plates were used as pre-dilution plates. A total of 4 pre-dilution plates were prepared including 10 test compounds each on the plate positions A1-A10, one standard compound at A11 and one DMSO control at A12. All dilution steps were done on a HamiltonSTAR robot.
Master plates: 100 μL of individual compound dilutions including standard compound and controls of the 4 “pre-dilution plates” were transferred into a 384 “master plate” including the following concentrations 1′820, 564, 182, 54.6, 18.2, 5.46, 1.82 and 0.546 μM, respectively in 90% of DMSO.
Assay plates: Identical assay plates were then prepared by pipetting 100 nL each of compound dilutions of the master plates into 384-well “assay plates”. […] The preparation of the master plates were handled by the Matrix PlateMate Plus robot and replication of assay plates by the HummingBird robot.

For test [1], the system named is JAK/STAT pathway (JAK1/JAK2-dependent nuclear translocation of STAT1-GFP). The test can be described thus: Inhibition of the JAK/STAT pathway: IFN-γ stimulated nuclear translocation of STAT1-GFP in HT1080 fibrosarcoma cells. The format is cell-based. The note with it: Homo sapiens, HT-1080; HT1080 STAT1-GFP cells, 100 ng/ml IFN-γ 2 hours, compound added 30 min before; read-out: STAT1translo IC50. The gist of the method: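 Readout is the nuclear-minus-cytoplasmic GFP-STAT1 intensity, imaged at 10× using Hoechst-defined nuclear masks over at least 1000 cells/well. Stably transfected HT1080 fibrosarcoma cells were pretreated 30 min with compound (final 0.003–10 μM, 0.1% DMSO) before IFN-γ challenge.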

In general, IC50 refers to the concentration needed to halve the response being measured.

T1 sequence (P23458 866-1154): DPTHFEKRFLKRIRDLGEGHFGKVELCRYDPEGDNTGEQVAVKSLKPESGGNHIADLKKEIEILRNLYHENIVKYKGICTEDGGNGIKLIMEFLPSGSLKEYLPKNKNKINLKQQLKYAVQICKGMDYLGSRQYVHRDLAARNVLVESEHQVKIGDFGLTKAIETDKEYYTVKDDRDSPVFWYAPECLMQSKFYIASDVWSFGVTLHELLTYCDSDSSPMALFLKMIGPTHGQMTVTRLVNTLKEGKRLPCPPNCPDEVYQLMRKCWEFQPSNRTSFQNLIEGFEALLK
T2 sequence (O60674 808-1132): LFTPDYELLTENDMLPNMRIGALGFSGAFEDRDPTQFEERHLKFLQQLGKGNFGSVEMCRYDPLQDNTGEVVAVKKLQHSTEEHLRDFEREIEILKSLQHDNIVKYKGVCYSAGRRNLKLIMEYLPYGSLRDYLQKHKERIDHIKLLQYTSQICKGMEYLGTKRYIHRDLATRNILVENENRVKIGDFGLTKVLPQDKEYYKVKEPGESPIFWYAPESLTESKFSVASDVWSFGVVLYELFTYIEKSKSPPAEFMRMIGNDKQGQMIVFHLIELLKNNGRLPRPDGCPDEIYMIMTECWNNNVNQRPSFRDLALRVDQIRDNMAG

Turning to `Fc1cc(-c2cccc3ncc(-c4cnn(CC5CCCNC5)c4)nc23)cc(F)c1CN1CCOCC1` (racemic) [Example 135, (rac)-8-(3,5-Difluoro-4-morpholin-4-ylmethyl-phenyl)-2-(1-piperidin-3-ylmethyl-1H-pyrazol-4-yl)-quinoxaline], the IC50 on GST-JAK1(866-1154) is 240 nM; on GST-JAK2(808-1132), 6.1 nM; on GST-TYK2(888-1187), 510 nM; in test [1], 1350 nM.
Taken in the same sequence, the figures for `Cc1cc(-c2cccc3ncc(-c4cnn(C5CCNCC5)c4)nc23)ccc1C(=O)N1CCOCC1` [Example 100, {2-Methyl-4-[3-(1-piperidin-4-yl-1H-pyrazol-4-yl)-quinoxalin-5-yl]-phenyl}-morpholin-4-yl-methanone] were 1400 nM, 130 nM, 1200 nM and 12600 nM.
Take `CN1CCN(c2ccc(-c3cnc4cccc(-c5ccc(CN6CCS(=O)(=O)CC6)cc5)c4n3)cn2)CC1` [Example 109, 8-[4-(1,1-Dioxido-thiomorpholin-4-ylmethyl)-phenyl]-2-[6-(4-methyl-piperazin-1-yl)-pyridin-3-yl]-quinoxaline]: the IC50 was found to be 150 nM on GST-JAK1(866-1154), 24 nM on GST-JAK2(808-1132), 360 nM at GST-TYK2(888-1187) and 3060 nM in test [1].
As for `Cc1cc(-c2cnc3cccc(-c4cc(F)c(CN5CCOCC5)c(F)c4)c3n2)ccc1C(=O)NCCO` [Example 120, 4-[8-(3,5-Difluoro-4-morpholin-4-ylmethyl-phenyl)-quinoxalin-2-yl]-N-(2-hydroxy-ethyl)-2-methyl-benzamide], the IC50 at GST-JAK1(866-1154) was 130 nM; on GST-JAK2(808-1132), 13 nM; on GST-TYK2(888-1187), 350 nM; in test [1], 1730 nM.
On to `Cc1c(-c2cnc3cccc(-c4cc(F)c(CN5CCOCC5)c(F)c4)c3n2)cnn1C1CCNCC1` [Example 125, 8-(3,5-Difluoro-4-morpholin-4-ylmethyl-phenyl)-2-(5-methyl-1-piperidin-4-yl-1H-pyrazol-4-yl)-quinoxaline], for which the IC50 on GST-JAK1(866-1154) was 310 nM; on GST-JAK2(808-1132), under 3 nM; on GST-TYK2(888-1187), 210 nM; in test [1] it was 369 nM.
Regarding `Cc1nn(C2CCNCC2)cc1-c1cnc2cccc(-c3cc(F)c(CN4CCOCC4)c(F)c3)c2n1` [Example 127, 8-(3,5-Difluoro-4-morpholin-4-ylmethyl-phenyl)-2-(3-methyl-1-piperidin-4-yl-1H-pyrazol-4-yl)-quinoxaline], the IC50 at GST-JAK1(866-1154) was 66 nM; on GST-JAK2(808-1132), under 3 nM; at GST-TYK2(888-1187), 38 nM; in test [1] it was 86 nM.
Turning to `Fc1cc(-c2cccc3ncc(-c4cnn(C5CCN(C6CC6)CC5)c4)nc23)cc(F)c1CN1CCOCC1` [Example 128, 2-[1-(1-Cyclopropyl-piperidin-4-yl)-1H-pyrazol-4-yl]-8-(3,5-difluoro-4-morpholin-4-ylmethyl-phenyl)-quinoxaline], the IC50 on GST-JAK1(866-1154) was 130 nM; at GST-JAK2(808-1132) it was under 3 nM; on GST-TYK2(888-1187) it was 160 nM; in test [1], 196 nM.
Consider `O=C(C1CC1)N1CCC(n2cc(-c3cnc4cccc(-c5cc(F)c(CN6CCOCC6)c(F)c5)c4n3)cn2)CC1` [Example 129, Cyclopropyl-(4-{4-[8-(3,5-difluoro-4-morpholin-4-ylmethyl-phenyl)-quinoxalin-2-yl]-pyrazol-1-yl}-piperidin-1-yl)-methanone], for which the IC50 was 78 nM at GST-JAK1(866-1154), under 3 nM on GST-JAK2(808-1132), 96 nM at GST-TYK2(888-1187) and 162 nM in test [1].
For `COC(=O)N1CCC(n2cc(-c3cnc4cccc(-c5cc(F)c(CN6CCOCC6)c(F)c5)c4n3)cn2)CC1` [Example 130, 4-{4-[8-(3,5-Difluoro-4-morpholin-4-ylmethyl-phenyl)-quinoxalin-2-yl]-pyrazol-1-yl}-piperidine-1-carboxylic acid methyl ester], the concentration for half-maximal inhibition (IC50) on GST-JAK1(866-1154) was 150 nM; on GST-JAK2(808-1132), 3.4 nM; at GST-TYK2(888-1187), 200 nM; in test [1] it was 163 nM.
For the compound `Cc1nn(C2CCN(C(=O)C(C)C)CC2)cc1-c1cnc2cccc(-c3cc(F)c(CN4CCOCC4)c(F)c3)c2n1` [Example 131, 1-(4-{4-[8-(3,5-Difluoro-4-morpholin-4-ylmethyl-phenyl)-quinoxalin-2-yl]-3-methyl-pyrazol-1-yl}-piperidin-1-yl)-2-methyl-propan-1-one], the IC50 is 50 nM on GST-JAK1(866-1154), under 3 nM on GST-JAK2(808-1132), 33 nM at GST-TYK2(888-1187) and 90 nM in test [1].
`Fc1cc(-c2cccc3ncc(-c4cnn(CC5CCNCC5)c4)nc23)cc(F)c1CN1CCOCC1` [Example 133, 8-(3,5-Difluoro-4-morpholin-4-ylmethyl-phenyl)-2-(1-piperidin-4-ylmethyl-1H-pyrazol-4-yl)-quinoxaline]: the IC50 came out at 550 nM at GST-JAK1(866-1154), 5.4 nM at GST-JAK2(808-1132), 750 nM on GST-TYK2(888-1187) and 840 nM in test [1].
Consider `CC(C)(C)OC(=O)N1CCC(n2cc(-c3cnc4cccc(-c5cc(F)c(CN6CCOCC6)c(F)c5)c4n3)cn2)CC1` [Example 136, 4-{4-[8-(3,5-Difluoro-4-morpholin-4-ylmethyl-phenyl)-quinoxalin-2-yl]-pyrazol-1-yl}-piperidine-1-carboxylic acid tert-butyl ester], for which the IC50 on GST-JAK1(866-1154) stood at 290 nM; on GST-JAK2(808-1132), 4.6 nM; at GST-TYK2(888-1187), 260 nM; in test [1], 532 nM.
As for `CN1CCN(C(=O)c2cc(-c3cnc4cccc(-c5cc(F)c(CN6CCS(=O)(=O)CC6)c(F)c5)c4n3)cn2C)CC1` [Example 168, (4-{8-[4-(1,1-Dioxido-thiomorpholin-4-ylmethyl)-3,5-difluoro-phenyl]-quinoxalin-2-yl}-1-methyl-1H-pyrrol-2-yl)-(4-methyl-piperazin-1-yl)-methanone], the IC50 was 16 nM at GST-JAK1(866-1154), under 3 nM on GST-JAK2(808-1132) and 30 nM on GST-TYK2(888-1187).
Taken in the same sequence, the figures for `O=S1(=O)CCN(Cc2c(F)cc(-c3cccc4ncc(-c5cccc(N6CCNCC6)c5)nc34)cc2F)CC1` [Example 169, 8-[4-(1,1-Dioxido-thiomorpholin-4-ylmethyl)-3,5-difluoro-phenyl]-2-(3-piperazin-1-yl-phenyl)-quinoxaline] were 17 nM, under 3 nM and 26 nM.
`CC(C)(O)C#Cc1cnc2cccc(-c3cc(F)c(CN4CCS(=O)(=O)CC4)c(F)c3)c2n1` [Example 171, 4-{8-[4-(1,1-Dioxido-thiomorpholin-4-ylmethyl)-3,5-difluoro-phenyl]-quinoxalin-2-yl}-2-methyl-but-3-yn-2-ol]: the IC50 worked out at 440 nM at GST-JAK1(866-1154), 70 nM at GST-JAK2(808-1132) and 2000 nM at GST-TYK2(888-1187).

The values are drawn from US8193189B2, “Quinoxaline derivatives as tyrosine kinase activity inhibitors” (Novartis AG, priority 2007, dated 2012).
